Data on 36 compounds can be found in ChEMBL document CHEMBL1129182, “Oximes: A new class of methoxytetrahydropyranyl inhibitors of leukotriene biosynthesis with high in vitro and in vivo potency” (Bioorg Med Chem Lett, 1996).

In brackets after ≈: the same amount, converted by molar mass.

The species named for one data set is Homo sapiens. Put plainly: In vitro inhibitory activity against LTB4 synthesis in A-23187 stimulated human whole blood (HB1). The data set is classed as functional.
The species entered for a further data set is Rattus norvegicus. Briefly: compound was tested for oral activity in the rat using zymosan-inflamed air pouch exudate at 3 hrs post dose(RAP). The data set is classed as functional.
A short description of data set [1]: Solubility was evaluated. The data set is classed as physicochemical.
Data set [2] is described as follows: pKa value was evaluated. The data set is classed as physicochemical.

For orientation: IC50 means the point on the concentration scale where inhibition reaches its midpoint. Read a high IC50 as weaker potency. Turning to `COC1(c2csc(Sc3ccc4c(c3)CC/C4=N\OCC#N)c2)CCOCC1`, the concentration for half-maximal inhibition (IC50) in the data set filed under Homo sapiens stood at 40 nM.
Same read-out and setting: the same measure for `COC1(c2cc(F)cc(Sc3ccc4c(c3)OCC/C4=N\O)c2)CCOCC1`: 50 nM; for `COC1(c2cc(F)cc(Sc3ccc(/C(C)=N/OCC#N)cc3)c2)CCOCC1`: 20 nM.
Same read-out and setting: under `COC1(c2cc(F)cc(Sc3ccc(/C(C)=N/OC(C)C)cc3)c2)CCOCC1` stands 920 nM; under `COC1(c2cc(F)cc(Sc3ccc(/C(C)=N/OCCF)cc3)c2)CCOCC1`, 40 nM.
The same measure, in the same setting: under `COC1(c2cc(F)cc(Sc3ccccc3/C(C)=N/O)c2)CCOCC1` stands greater than 10000 nM.
For orientation: ED50 means the dose that gives a 50% effect, or the effect in half of the subjects. A lower ED50 goes with an effect at a small dose. With `CO[C@]1(c2cnc(Sc3ccc(/C(C)=N/O)cc3)s2)CCO[C@@H](C)C1`, in the data set listed under Rattus norvegicus, the ED50 was determined as 0.3 mg/kg. This compound returned an IC50 in the data set filed under Homo sapiens of 40 nM.
The term solubility denotes the concentration that dissolves in the medium under given conditions. `CO[C@]1(c2cnc(S(=O)(=O)c3ccc(/C(C)=N/OCC#N)cc3)s2)CCO[C@@H](C)C1`: in data set [1], the solubility amounted to 1 µM (≈ 0.45 µg/mL). Also, in the data set listed under Rattus norvegicus, the ED50 was 0.5 mg/kg. In the data set listed under Homo sapiens, this compound registered an IC50 of 140 nM.
With `COC1(c2cc(F)cc(Sc3ccc4c(c3)OCC/C4=N\OCC#N)c2)CCOCC1`, in the data set listed under Homo sapiens, the IC50 was 40 nM.
The compound `CO[C@]1(c2cnc(S(=O)(=O)c3ccc(/C(C)=N/O)cc3)s2)CCO[C@@H](C)C1` displayed a solubility in data set [1] of 31 µM (≈ 12.7 µg/mL). This compound registered an ED50 in the data set listed under Rattus norvegicus of 1 mg/kg. The IC50 in the data set listed under Homo sapiens was 320 nM.
As to `COC1(c2csc(Sc3ccc4c(c3)OCC/C4=N\OCC#N)c2)CCOCC1`, in the data set listed under Rattus norvegicus, the ED50 was 0.15 mg/kg. The compound also came in with an IC50 in the data set filed under Homo sapiens of 60 nM.
In turn, `CCOC(=O)CO/N=C(\C)c1ccc(Sc2cc(F)cc(C3(OC)CCOCC3)c2)cc1` showed an IC50 in the data set listed under Homo sapiens of 610 nM. That is a sub-micromolar value.
For orientation: pKa means the pH at which an ionisable group is half protonated. The compound `COC1(c2cc(F)cc(Sc3ccc(/C(C#N)=N/O)cc3)c2)CCOCC1` showed a pKa in data set [2] of 6.2. In the data set listed under Homo sapiens, this compound registered a half-inhibitory concentration (IC50) of 250 nM.
With `CO[C@]1(c2cnc(Sc3ccc(/C(C)=N/OCC#N)cc3)s2)CCO[C@@H](C)C1`, it took a dose of 0.3 mg/kg to reach the 50% effect level in the data set listed under Rattus norvegicus (ED50). This compound also returned an IC50 in the data set listed under Homo sapiens of 40 nM.
For `CO/N=C(\C)c1ccc(Sc2cc(F)cc([C@@]3(OC)CCO[C@@H](C)C3)c2)cc1`, in that order: 0.15 mg/kg and 140 nM.
The compound `CCOC(=O)/C(=N\O)c1ccc(Sc2cc(F)cc(C3(OC)CCOCC3)c2)cc1` came in with a pKa in data set [2] of 9.3. The same compound came in with a half-maximal inhibitory concentration (IC50) in the data set filed under Homo sapiens of 170 nM.
Consider `CO[C@]1(c2cc(F)cc(Sc3ccc(/C(C)=N/OCC#N)cc3)c2)CCO[C@@H](C)C1`, for which the ED50 in the data set listed under Rattus norvegicus was found to be 0.15 mg/kg. This compound yielded an IC50 in the data set listed under Homo sapiens of 40 nM.
On to `COC1(c2cc(F)cc(Sc3ccc4c(c3)CC/C4=N\O)c2)CCOCC1`, for which, in the data set listed under Homo sapiens, inhibition was half-maximal at 290 nM (IC50). In other words, the sub-micromolar range.
For the compound `COC1(c2cc(F)cc(Sc3ccc(/C(=N/O)C(F)(F)F)cc3)c2)CCOCC1`, the pKa in data set [2] turned out to be 7.68. Moreover, it took 280 nM to reach half-maximal inhibition in the data set filed under Homo sapiens (IC50).
For the compound `COC1(c2cc(F)cc(Sc3ccc(/C(C)=N/OCCSc4nnc(C)s4)cc3)c2)CCOCC1`, in the data set listed under Homo sapiens, the IC50 was found to be 230 nM.
Still for that read-out and setting: the same measure for `COC(=O)C(C)(C)CO/N=C(\C)c1ccc(Sc2cc(F)cc(C3(OC)CCOCC3)c2)cc1`: 420 nM; for `COC1(c2cc(F)cc(Sc3ccc(/C(=N/O)SC)cc3)c2)CCOCC1`: 190 nM.
Compound `CO[C@]1(c2cc(F)cc(S(=O)(=O)c3ccc(/C(C)=N/O)cc3)c2)CCO[C@@H](C)C1` displayed a solubility in data set [1] of 4.6 µM (≈ 1.94 µg/mL). It took a dose of 0.1 mg/kg to reach the 50% effect level in the data set listed under Rattus norvegicus (ED50). Moreover, in the data set filed under Homo sapiens, the IC50 amounted to 20 nM.
In turn, `COC1(c2cc(F)cc(Sc3ccc(/C(C)=N/OC(C)=O)cc3)c2)CCOCC1` yielded an IC50 in the data set listed under Homo sapiens of 50 nM.
For the compound `CO[C@]1(c2cc(F)cc(Sc3ccc(/C(C)=N/O)cc3)c2)CCO[C@@H](C)C1`, the solubility in data set [1] worked out at 0.6 µM (≈ 0.234 µg/mL). In the data set filed under Rattus norvegicus, this compound yielded an ED50 of 0.05 mg/kg. In addition, the IC50 in the data set filed under Homo sapiens was determined as 40 nM.
In the case of `COC1(c2cc(F)cc(Sc3ccc(/C(C)=N/OC(=O)C(C)(C)C)cc3)c2)CCOCC1`, in the data set filed under Homo sapiens, inhibition was half-maximal at 40 nM (IC50).
On the same count and under the same terms, under `CO/N=C(\C)c1ccc(Sc2cc(F)cc(C3(OC)CCOCC3)c2)cc1` stands 110 nM.
In the case of `COC1(c2cc(F)cc(Sc3ccc(/C(=N/O)C(C)=O)cc3)c2)CCOCC1`, the pKa in data set [2] turned out to be 8.4. In the data set filed under Homo sapiens, this compound returned an IC50 of 850 nM.
`COC1(c2csc(Sc3ccc4c(c3)CC/C4=N\O)c2)CCOCC1` yielded an IC50 in the data set listed under Homo sapiens of 130 nM.
Same read-out and setting: the same measure for `COC1(c2cc(F)cc(Sc3ccc4c(c3)CC/C4=N\OCC#N)c2)CCOCC1`: 30 nM; for `CCOC(=O)c1csc(CO/N=C(\C)c2ccc(Sc3cc(F)cc(C4(OC)CCOCC4)c3)cc2)n1`: 150 nM.
On the same count and under the same terms, under `COC1(c2csc(Sc3ccc4c(c3)OCC/C4=N\O)c2)CCOCC1` stands 40 nM; under `COC1(c2cc(F)cc(Sc3ccc(/C(C)=N/OCC(=O)O)cc3)c2)CCOCC1`, 740 nM.
With `CO[C@]1(c2cc(F)cc(S(=O)(=O)c3ccc(/C(C)=N/OCC#N)cc3)c2)CCO[C@@H](C)C1`, the 50% effect level in the data set filed under Rattus norvegicus (ED50) was put at a dose of 0.1 mg/kg. Moreover, the concentration for half-maximal inhibition (IC50) in the data set filed under Homo sapiens stood at 60 nM.
`C/C(=N\OC(=O)N(C)C)c1ccc(Sc2cc(F)cc(C3CCOCC3)c2)cc1` displayed an IC50 in the data set listed under Homo sapiens of 2610 nM.
Still for that read-out and setting: the same measure for `COC1(c2cc(F)cc(OCc3ccc4c(ccc(=O)n4C)c3)c2)CCOCC1` [ZD-2138]: 25 nM.
